Assay [1] deals with MV4:11 human cancer cell lines. Kind of assay: Cellular viability / anti-proliferative activity, CellTiter-Glo, 5 day protocol. Type of assay: cell-based. To be noted: Homo sapiens, MV4-11, 120 h, MV4:11 cells, 5 day incubation, read-out: GI50 for representative compounds on cellular proliferation of MV4:11 human cancer cell lines. An outline of the steps: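 MV-4-11 cells in IMDM/10% FBS, 200 cells per well, exposed to 22-point 2-fold dilutions from 30 μM top (0.3% DMSO) for 5 days. Viability by CellTiter-Glo luminescence; GI50 from sigmoidal dose-response fit, mean of at least two replicates.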

The next assay concerns the target T1, WDR5 (Homo sapiens, UniProt P61964).
T1 construct: WDR5-His Tag (A23, residues 24-334) is expressed and purified in our lab; made in house
Kind of assay: Time Resolved-Fluorescence Energy Transfer (TR-FRET) competition assay, displacement of 10mer-Thr-FAM probe from His-tagged WDR5. Type of assay: binding. To be noted: WDR5-His tag 2 nM, 10mer-Thr-FAM 150 nM, 60 minutes at room temperature; read-out: Ki for Exemplified Compounds for Inhibition of WDR5 by TR-FRET assay. An outline of the steps: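 Competitive TR-FRET using 2 nM His-tagged WDR5 (residues 24-334), 1 nM Tb-anti-His antibody and 150 nM 10mer-Thr-FAM probe; compounds in a 10-point, 5-fold series from 5 μM, ≤1% DMSO. Incubated 60 min at room temperature in PBS with 300 mM NaCl, 0.5 mM TCEP, 0.1% CHAPS, pH 7.2; 520/495 nm emission gave IC50, converted to Ki by the Wang equation.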

The structures appear in SMILES notation.

In general, Ki refers to a measure of affinity in units of concentration, obtained from inhibition or displacement.

As to `COc1cc2nc(N3CCOCC3)nc(N3CCc4c(cc(Cn5ccnc5)cc4-c4cn(C)nc4C(F)(F)F)C3=O)c2cc1OC` [Example 56, 7-((1H-Imidazol-1-yl)methyl)-2-(6,7-dimethoxy-2-morpholinoquinazolin-4-yl)-5-(1-methyl-3-(trifluoromethyl)-1H-pyrazol-4-yl)-3,4-dihydroisoquinolin-1(2H)-one], the GI50 in assay [1] was less than 20 nM. In addition, at WDR5, the Ki is less than 0.02 nM.
Taken in the same sequence, the figures for `CNc1nc(N2CCc3c(cc(Cn4ccnc4)cc3-c3cn(C)nc3C(F)(F)F)C2=O)c2cc(OC)c(OC)cc2n1` [Example 57, 7-((1H-Imidazol-1-yl)methyl)-2-(6,7-dimethoxy-2-(methylamino)quinazolin-4-yl)-5-(1-methyl-3-(trifluoromethyl)-1H-pyrazol-4-yl)-3,4-dihydroisoquinolin-1(2H)-one] were 24 nM and 0.023 nM.
Regarding `CCn1nc(C)cc1-c1cc(Cn2ccnc2)cc2c1CCN(c1nc(C)nc3cc(OC)c(OC)cc13)C2=O` [Example 58, 7-((1H-Imidazol-1-yl)methyl)-2-(6,7-dimethoxy-2-methylquinazolin-4-yl)-5-(1-ethyl-3-methyl-1H-pyrazol-5-yl)-3,4-dihydroisoquinolin-1(2H)-one], in assay [1], the GI50 is 195 nM. Moreover, at WDR5, the Ki turned out to be 0.03 nM.
Consider `COc1cc2nc(C)nc(N3CCc4c(cc(Cn5ccnc5)cc4-c4cc(C)nn4C)C3=O)c2cc1OC` [Example 59, 7-((1H-Imidazol-1-yl)methyl)-2-(6,7-dimethoxy-2-methylquinazolin-4-yl)-5-(1,3-dimethyl-1H-pyrazol-5-yl)-3,4-dihydroisoquinolin-1(2H)-one], for which the GI50 in assay [1] came out at 90 nM. For the same molecule, the inhibition constant (Ki) on WDR5 was less than 0.02 nM.
Taken in the same sequence, the figures for `COc1cc2nc(C)nc(N3CCc4c(cc(Cn5ccnc5)cc4-c4cc(C(F)(F)F)nn4C)C3=O)c2cc1OC` [Example 61, 7-((1H-Imidazol-1-yl)methyl)-2-(6,7-dimethoxy-2-methylquinazolin-4-yl)-5-(1-methyl-3-(trifluoromethyl)-1H-pyrazol-5-yl)-3,4-dihydroisoquinolin-1(2H)-one] were 128 nM and 0.031 nM.
On to `CCN(C)c1nc(N2CCc3c(cc(Cn4ccnc4)cc3-c3cn(C)nc3C(F)(F)F)C2=O)c2cc(OC)c(OC)cc2n1` [Example 62, 7-((1H-Imidazol-1-yl)methyl)-2-(2-(ethyl(methyl)amino)-6,7-dimethoxyquinazolin-4-yl)-5-(1-methyl-3-(trifluoromethyl)-1H-pyrazol-4-yl)-3,4-dihydroisoquinolin-1(2H)-one], for which the GI50 in assay [1] is 29 nM. Also, at WDR5, the Ki is less than 0.02 nM.
The corresponding values for `CCc1nc(N2CCc3c(cc(Cn4ccnc4)cc3-c3cn(C)nc3C(F)(F)F)C2=O)c2cc(OC)c(OC)cc2n1` [Example 63, 7-((1H-Imidazol-1-yl)methyl)-2-(2-ethyl-6,7-dimethoxyquinazolin-4-yl)-5-(1-methyl-3-(trifluoromethyl)-1H-pyrazol-4-yl)-3,4-dihydroisoquinolin-1(2H)-one] are less than 20 nM and less than 0.02 nM.
For the molecule `COc1cc2nc(C3CC3)nc(N3CCc4c(cc(Cn5ccnc5)cc4-c4cn(C)nc4C(F)(F)F)C3=O)c2cc1OC` [Example 64, 7-((1H-Imidazol-1-yl)methyl)-2-(2-cyclopropyl-6,7-dimethoxyquinazolin-4-yl)-5-(1-methyl-3-(trifluoromethyl)-1H-pyrazol-4-yl)-3,4-dihydroisoquinolin-1(2H)-one], the GI50 in assay [1] was less than 20 nM. Further, the inhibition constant Ki at WDR5 is less than 0.02 nM.
Taken in the same sequence, the figures for `COc1cc2nc(C)nc(N3CCc4c(cc(Cn5ccnc5)cc4-c4cn(C)nc4C)C3=O)c2cc1OC` [Example 65, 7-((1H-Imidazol-1-yl)methyl)-2-(6,7-dimethoxy-2-methylquinazolin-4-yl)-5-(1,3-dimethyl-1H-pyrazol-4-yl)-3,4-dihydroisoquinolin-1(2H)-one] were 43 nM and 0.023 nM.
The corresponding values for `COc1cc2nc(C)nc(N3CCc4c(cc(Cn5ccnc5)cc4-c4ccc(F)cc4C)C3=O)c2cc1OC` [Example 66, 7-((1H-Imidazol-1-yl)methyl)-2-(6,7-dimethoxy-2-methylquinazolin-4-yl)-5-(4-fluoro-2-methylphenyl)-3,4-dihydroisoquinolin-1(2H)-one] are 38 nM and 0.02 nM.
As for `COc1cc2nc(C3CCOCC3)nc(N3CCc4c(cc(Cn5ccnc5)cc4-c4cn(C)nc4C(F)(F)F)C3=O)c2cc1OC` [Example 67, 7-((1H-Imidazol-1-yl)methyl)-2-(6,7-dimethoxy-2-(tetrahydro-2H-pyran-4-yl)quinazolin-4-yl)-5-(1-methyl-3-(trifluoromethyl)-1H-pyrazol-4-yl)-3,4-dihydroisoquinolin-1(2H)-one], in assay [1], the GI50 was less than 20 nM. In addition, the inhibitory constant (Ki) on WDR5 worked out at 0.025 nM.

For the origin of these results see patent publication US20240262822A1, “WDR5 INHIBITORS AND MODULATORS” (Vanderbilt University, priority 2021, published 2024).
